Experimental data published in ChEMBL document CHEMBL1201862, “PubChem BioAssay data set” (2004).
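Dose response: 5 concentrations. Exposure: 48 h. Format: 96-well plates. Endpoint: linear interpolation; highest concentration if not reached. Here, GI50 denotes the concentration required for 50% inhibition of growth.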 Calls of active or inactive are those of the source. No stated cut-off is given here; in the data, active = GI50 up to about 1.1 µM and inactive = higher. Where a SMILES comes first, the peptide text is derived from it. The star is where a group is joined. Boc = CC(C)(C)OC(=O)*; OSu = O=C1CCC(=O)N1O*

Assays:
Experiment in all cases: NCI tumour cell line growth inhibition, 48 h
[1] = test system: CCRF-CEM
[2] = test system: COLO 205
[3] = test system: HCC 2998
[4] = test system: Hs-578T
[5] = test system: IGROV-1
[6] = test system: MCF7
[7] = test system: NCI/ADR-RES
[8] = test system: OVCAR-4
[9] = test system: OVCAR-8
[10] = test system: PC-3
[11] = test system: RPMI-8226
[12] = test system: SF-295
[13] = test system: SK-MEL-2
[14] = test system: SK-OV-3
[15] = test system: TK-10
[16] = test system: UACC-257
[17] = test system: UO-31
[18] = test system: A549
[19] = test system: HL-60
[20] = test system: Malme-3M

Row | Structure (SMILES) | GI50 [1] | GI50 [2] | GI50 [3] | GI50 [4] | GI50 [5] | GI50 [6] | GI50 [7] | GI50 [8] | GI50 [9] | GI50 [10] | GI50 [11] | GI50 [12] | GI50 [13] | GI50 [14] | GI50 [15] | GI50 [16] | GI50 [17] | GI50 [18] | GI50 [19] | GI50 [20]
1 | Oc1nc2c(c(-c3ccc(F)cc3)n1)COC/C2=C\c1ccc(F)cc1 | > 100 µM (inactive) | > 100 µM (inactive) | > 100 µM (inactive) | > 100 µM (inactive) | > 100 µM (inactive) | > 100 µM (inactive) | > 100 µM (inactive) | > 100 µM (inactive) | > 100 µM (inactive) | > 100 µM (inactive) | > 100 µM (inactive) | > 100 µM (inactive) | > 100 µM (inactive) | > 100 µM (inactive) | > 100 µM (inactive) | > 100 µM (inactive) | > 100 µM (inactive) |  |  | 
2 | CC(C)(C)OC(=O)NC(Cc1ccc(O)cc1)C(=O)NC(CCCCN)C(=O)NC(Cc1ccc(O)cc1)C(=O)NC(CCCCN)C(=O)ON1C(=O)CCC1=O (stereo unspecified) (Boc-YKYK-OSu; configuration not given here) | > 100 µM (inactive) | > 100 µM (inactive) | > 100 µM (inactive) | > 100 µM (inactive) | 85.3 µM (inactive) | > 100 µM (inactive) |  |  | > 100 µM (inactive) | > 100 µM (inactive) | > 100 µM (inactive) |  | > 100 µM (inactive) |  | > 100 µM (inactive) | > 100 µM (inactive) | > 100 µM (inactive) | > 100 µM (inactive) | > 100 µM (inactive) | > 100 µM (inactive)
3 | C[N+]1(CCCl)CC[N+](C)(CCCl)CC1 (stereo unspecified) | > 100 µM (inactive) | > 100 µM (inactive) |  | > 100 µM (inactive) | > 100 µM (inactive) | > 100 µM (inactive) | > 100 µM (inactive) | > 100 µM (inactive) | > 100 µM (inactive) | > 100 µM (inactive) | > 100 µM (inactive) | > 100 µM (inactive) | > 100 µM (inactive) | > 100 µM (inactive) | > 100 µM (inactive) | > 100 µM (inactive) | 99.5 µM (inactive) | > 100 µM (inactive) | 28.8 µM (inactive) | > 100 µM (inactive)
4 | CC(=O)OC1CC(O)CC2=CCC3C4CCC(C(C)(O)C(O)CC5COC(=O)C5C)C4(C)CCC3C21C (stereo unspecified) | 16.5 µM (inactive) | > 25 µM (inactive) | > 25 µM (inactive) | 10.3 µM (inactive) | > 25 µM (inactive) | > 25 µM (inactive) |  | > 25 µM (inactive) | > 25 µM (inactive) | > 25 µM (inactive) | 14.6 µM (inactive) | > 25 µM (inactive) | > 25 µM (inactive) | > 25 µM (inactive) | > 25 µM (inactive) | > 25 µM (inactive) | 8.59 µM (inactive) | > 25 µM (inactive) | 4.39 µM (inactive) | 
5 | CN(C(=O)OC(C)(C)C)[C@H]1CCCC[C@H]1N1CCCC1 | 0.0129 µM (active) | > 100 µM (inactive) |  | > 100 µM (inactive) | > 100 µM (inactive) | > 100 µM (inactive) | > 100 µM (inactive) | > 100 µM (inactive) | > 100 µM (inactive) | > 100 µM (inactive) | > 100 µM (inactive) | > 100 µM (inactive) | > 100 µM (inactive) | > 100 µM (inactive) | > 100 µM (inactive) | 53.7 µM (inactive) | > 100 µM (inactive) | > 100 µM (inactive) | 5.81 µM (inactive) | > 100 µM (inactive)
6 | CCOc1ccncc1[N+](=O)[O-] | > 100 µM (inactive) | > 10 µM (inactive) |  | > 100 µM (inactive) | > 100 µM (inactive) | > 100 µM (inactive) | > 100 µM (inactive) |  | > 100 µM (inactive) | > 100 µM (inactive) | > 100 µM (inactive) | > 100 µM (inactive) | > 100 µM (inactive) | > 100 µM (inactive) | > 100 µM (inactive) | > 100 µM (inactive) | > 100 µM (inactive) | > 100 µM (inactive) | > 100 µM (inactive) | > 100 µM (inactive)
7 | Cc1nc2cc([N+](=O)[O-])ccc2c(NCCCN(C)C)c1C | 28.9 µM (inactive) | 2.56 µM (inactive) |  | 20 µM (inactive) | 3.22 µM (inactive) | 2.94 µM (inactive) | 16.3 µM (inactive) | 3.03 µM (inactive) | 11.5 µM (inactive) | 4.71 µM (inactive) | 12.9 µM (inactive) | 17.3 µM (inactive) | 10.5 µM (inactive) | 31.5 µM (inactive) | 23.5 µM (inactive) | 5.45 µM (inactive) | 14.7 µM (inactive) | 6.21 µM (inactive) | 28.8 µM (inactive) | 6.22 µM (inactive)
8 | CCc1ccc(Nc2cc(=O)n(C)c(SCc3ccccc3)n2)cc1 | 78 µM (inactive) | 12.7 µM (inactive) |  | 97.3 µM (inactive) | 83.9 µM (inactive) | 28.6 µM (inactive) | > 100 µM (inactive) |  | > 100 µM (inactive) |  | > 10 µM (inactive) | 57.4 µM (inactive) | > 100 µM (inactive) | 85.1 µM (inactive) | > 100 µM (inactive) | > 100 µM (inactive) | > 100 µM (inactive) | 29 µM (inactive) | 39.8 µM (inactive) | 57.3 µM (inactive)
9 | [N-]=[N+]=CC(=O)OC(CCl)CCl | > 10 µM (inactive) | > 100 µM (inactive) | > 100 µM (inactive) |  | > 100 µM (inactive) | > 100 µM (inactive) |  | > 100 µM (inactive) |  | > 100 µM (inactive) | > 100 µM (inactive) | > 100 µM (inactive) | > 100 µM (inactive) | > 100 µM (inactive) | > 100 µM (inactive) | > 100 µM (inactive) | > 100 µM (inactive) |  | > 100 µM (inactive) | > 100 µM (inactive)
10 | CN(C)CCNC1=C(Cl)C(=O)c2c(O)ccc(O)c2C1=O | 2.01 µM (inactive) | 1.93 µM (inactive) | 1.79 µM (inactive) | 2.99 µM (inactive) | 1.6 µM (inactive) |  | 3.12 µM (inactive) | 1.87 µM (inactive) | 1.9 µM (inactive) | 6.31 µM (inactive) | 2.65 µM (inactive) | 2.12 µM (inactive) | 2.1 µM (inactive) | 18.2 µM (inactive) | 2.33 µM (inactive) | 1.72 µM (inactive) | 2.02 µM (inactive) | 2.58 µM (inactive) | 2.38 µM (inactive) | 2.09 µM (inactive)
11 | c1ccc(-c2nnn3c2NC2=C(CCCC2)C3c2ccccc2)cc1 (stereo unspecified) | 12.3 µM (inactive) | 16.5 µM (inactive) |  | 24.9 µM (inactive) | 17.5 µM (inactive) | 17.1 µM (inactive) | 21.7 µM (inactive) |  | 2.06 µM (inactive) | 16.9 µM (inactive) | 14.9 µM (inactive) | 20.7 µM (inactive) | 16.2 µM (inactive) | 22.1 µM (inactive) |  | 21.2 µM (inactive) | 17.1 µM (inactive) | 12.9 µM (inactive) | 18.5 µM (inactive) | 
12 | N#CC(/C(=N/NC(=N)N)C(=O)Nc1ccccc1[N+](=O)[O-])c1nc(-c2ccc([N+](=O)[O-])cc2)cs1 (stereo unspecified) | > 100 µM (inactive) | > 100 µM (inactive) | > 100 µM (inactive) |  | > 100 µM (inactive) |  |  | > 100 µM (inactive) | > 100 µM (inactive) |  | > 100 µM (inactive) | > 100 µM (inactive) | > 100 µM (inactive) | > 100 µM (inactive) | > 100 µM (inactive) | > 100 µM (inactive) | > 100 µM (inactive) | > 100 µM (inactive) | > 100 µM (inactive) | > 100 µM (inactive)
13 | N#CCCN(CCC#N)c1ccc(C(=N/c2ccc(F)cc2)/N=N/c2ccccc2)cc1 | < 0.01 µM (active) | > 100 µM (inactive) | > 100 µM (inactive) | > 100 µM (inactive) | > 100 µM (inactive) | > 100 µM (inactive) | > 100 µM (inactive) | 93.5 µM (inactive) | > 100 µM (inactive) | > 100 µM (inactive) | > 100 µM (inactive) | 32.8 µM (inactive) | 93.3 µM (inactive) | > 100 µM (inactive) | > 100 µM (inactive) | 60.5 µM (inactive) | > 100 µM (inactive) | 37.8 µM (inactive) |  | 
14 | CCOC(=O)C(C(=O)OCC)=C1C=C(c2ccccc2)c2ccccc21 | 27.5 µM (inactive) | 54.2 µM (inactive) | 7.29 µM (inactive) |  | > 100 µM (inactive) |  |  | 38.3 µM (inactive) | > 100 µM (inactive) |  | 16.6 µM (inactive) | 31.2 µM (inactive) | > 100 µM (inactive) | > 100 µM (inactive) | 79.1 µM (inactive) | 73.1 µM (inactive) | > 100 µM (inactive) | 79.3 µM (inactive) | 20.5 µM (inactive) | > 100 µM (inactive)
15 | Cc1nc2c(=O)n(C)ncc2[nH]1 | > 100 µM (inactive) | > 100 µM (inactive) |  | 77.1 µM (inactive) | > 100 µM (inactive) | > 100 µM (inactive) | > 100 µM (inactive) |  | > 100 µM (inactive) | > 100 µM (inactive) | > 100 µM (inactive) | > 100 µM (inactive) | > 100 µM (inactive) |  | > 100 µM (inactive) | > 100 µM (inactive) | > 100 µM (inactive) | > 100 µM (inactive) | 33.4 µM (inactive) | 
16 | Brc1cccc(/C=N/C23CC4CC(CC(C4)C2)C3)c1 | > 100 µM (inactive) | > 100 µM (inactive) | > 100 µM (inactive) |  | > 100 µM (inactive) |  |  | > 100 µM (inactive) | > 100 µM (inactive) |  | > 100 µM (inactive) | > 100 µM (inactive) | > 100 µM (inactive) | > 100 µM (inactive) | > 100 µM (inactive) | > 100 µM (inactive) | > 100 µM (inactive) | > 100 µM (inactive) | > 100 µM (inactive) | > 100 µM (inactive)
